Here are results for 21 molecules from patent US10676479B2, “Imidazolepyridine compounds and uses thereof” (Novartis AG, priority 2016, dated 2020).

For experiment [1], the target named is wild type PRC2 (wtPRC2) complex (Homo sapiens (Human), UniProt O75530). The experiment in a line: EED LC-MS assay. The format is biochemical. To be noted: EED LC-MS Qualified assay; read-out: (b) IC50. On the procedure: EED LC-MS Assay Representative compounds of the present invention were serially and separately diluted 3-fold in DMSO to obtain a total of eight or twelve concentrations. […] A 6 μL solution of 3 μM of the peptide substrate H3K27Me0 (histone H3[21-44]-biotin) in reaction buffer was added to initiate each reaction. […] The data were then fit to a dose response equation using the program Helios to get the IC50 values of the test compound.
wild type PRC2 (wtPRC2) complex, sequence (O75530 whole entry): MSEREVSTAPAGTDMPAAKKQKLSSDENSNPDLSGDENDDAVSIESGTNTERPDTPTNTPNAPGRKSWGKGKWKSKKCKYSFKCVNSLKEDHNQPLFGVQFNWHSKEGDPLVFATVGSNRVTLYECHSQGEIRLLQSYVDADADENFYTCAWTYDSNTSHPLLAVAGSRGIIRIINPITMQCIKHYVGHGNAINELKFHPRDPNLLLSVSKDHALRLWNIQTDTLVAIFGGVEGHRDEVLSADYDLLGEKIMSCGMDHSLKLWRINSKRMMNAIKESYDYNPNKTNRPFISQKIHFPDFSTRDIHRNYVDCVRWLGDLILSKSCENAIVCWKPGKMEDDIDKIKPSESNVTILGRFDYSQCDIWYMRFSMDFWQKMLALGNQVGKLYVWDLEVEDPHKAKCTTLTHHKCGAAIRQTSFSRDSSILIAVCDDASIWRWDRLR
wild type PRC2 (wtPRC2) complex, sequence (Q15910 whole entry partner): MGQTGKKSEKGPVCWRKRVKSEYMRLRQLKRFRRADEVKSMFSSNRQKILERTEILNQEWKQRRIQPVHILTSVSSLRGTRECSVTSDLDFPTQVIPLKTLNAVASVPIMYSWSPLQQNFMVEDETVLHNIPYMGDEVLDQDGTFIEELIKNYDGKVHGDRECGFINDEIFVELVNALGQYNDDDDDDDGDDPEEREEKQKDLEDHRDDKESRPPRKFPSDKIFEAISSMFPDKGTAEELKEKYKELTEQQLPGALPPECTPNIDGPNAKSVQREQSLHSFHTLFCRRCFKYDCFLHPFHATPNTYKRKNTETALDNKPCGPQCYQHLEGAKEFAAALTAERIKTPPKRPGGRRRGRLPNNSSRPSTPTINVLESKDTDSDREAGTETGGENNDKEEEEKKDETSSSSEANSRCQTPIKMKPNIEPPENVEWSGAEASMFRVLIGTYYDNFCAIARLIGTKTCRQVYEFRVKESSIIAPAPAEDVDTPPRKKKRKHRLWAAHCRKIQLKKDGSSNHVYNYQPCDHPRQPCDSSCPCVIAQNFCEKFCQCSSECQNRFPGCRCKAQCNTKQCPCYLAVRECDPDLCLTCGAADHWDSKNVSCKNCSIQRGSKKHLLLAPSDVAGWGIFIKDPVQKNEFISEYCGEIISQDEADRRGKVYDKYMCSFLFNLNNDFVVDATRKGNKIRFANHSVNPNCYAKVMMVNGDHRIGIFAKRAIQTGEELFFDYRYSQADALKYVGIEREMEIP
wild type PRC2 (wtPRC2) complex, sequence (Q15022 whole entry partner): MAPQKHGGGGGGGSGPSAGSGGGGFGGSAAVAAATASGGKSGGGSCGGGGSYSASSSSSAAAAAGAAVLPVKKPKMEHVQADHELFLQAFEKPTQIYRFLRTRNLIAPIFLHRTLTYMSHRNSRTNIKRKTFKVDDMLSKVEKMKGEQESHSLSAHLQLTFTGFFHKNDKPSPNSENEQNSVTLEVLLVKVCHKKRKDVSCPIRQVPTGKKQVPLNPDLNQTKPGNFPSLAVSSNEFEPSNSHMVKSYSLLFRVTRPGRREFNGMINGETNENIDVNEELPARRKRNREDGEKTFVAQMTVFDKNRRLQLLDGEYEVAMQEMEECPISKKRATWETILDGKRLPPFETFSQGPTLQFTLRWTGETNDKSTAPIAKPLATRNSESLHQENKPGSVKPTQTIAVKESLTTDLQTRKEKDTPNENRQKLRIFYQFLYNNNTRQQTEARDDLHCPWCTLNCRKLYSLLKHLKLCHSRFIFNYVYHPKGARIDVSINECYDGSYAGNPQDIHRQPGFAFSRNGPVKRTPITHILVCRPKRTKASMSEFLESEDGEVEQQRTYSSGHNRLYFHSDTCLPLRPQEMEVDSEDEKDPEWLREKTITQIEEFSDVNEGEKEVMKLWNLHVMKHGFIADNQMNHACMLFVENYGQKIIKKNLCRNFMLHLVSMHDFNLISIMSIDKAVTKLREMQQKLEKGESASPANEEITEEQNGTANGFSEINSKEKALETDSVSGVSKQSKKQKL

The subject of experiment [2] is H3K27 methylation in G401 cell. Nature of the experiment: ELISA (H3K27 methylation) assay. It counts as cell-based. To be noted: Homo sapiens, G-401, ELISA Qualified assay, 48 h, read-out: (c) IC50. The method, then:
ELISA (H3K27 Methylation) Assay
Representative compounds of the present invention were serially and separately diluted 3-fold in DMSO to obtain a total of eight or twelve concentrations. Then the compounds were added to G401 cell cultured in 384-well plate at 1:500 dilution to obtain the highest concentration of 20 μM. The cells were further cultured for 48 h before ELISA procedure.
ELISA protocol: Cell lysates were transferred to the wells of a 384-well plate and the final volume was adjusted to 50 μL per well with PBS. The plate was sealed, centrifuged at 2,000 rpm for 2 min and incubated at 4° C. for about 16 h. The plate was washed with TBST buffer (1×TBS (10×TBS: 24.2 g Tris (Sigma, T6066), 80 g NaCl (Sigma, S3014) to 1 L of water and adjust pH to 7.6 with HCl) with 0.1% Tween-20). Blocking buffer (TBST, 5% BSA; 50 μL per well) was added and the plate was incubated for 1 h at rt. The blocking buffer was removed and primary antibody was added (30 μL per well). […] The primary antibody was incubated in the plate at rt for 1 h. The wells were washed with TBST and incubated with secondary antibody for 1 h at rt. […] After 1 h of incubation at rt, the wells were washed with TBST. […] The signal was read using a PerkinElmer Envision Reader. The H3K27 methylation readouts were normalized using H3 signal and then percentage inhibition was calculated against the samples treated with DMSO. The data were then fit to a dose response curve using the program Helios to get the IC50 values of the test compound.
On the technique in general: In an ELISA, binding on a coated surface is turned into a signal by an enzyme label.

Experiment [3] addresses EED (1-441)-His protein (Homo sapiens (Human), UniProt O75530). Nature of the experiment: EED-H3K27Me3 peptide competition binding assay by AlphaScreen. To be noted: EED Alphascreen binding Qualified assay. The method, then: Then 4 μL of detection beads mix was added to the plate and incubate in the dark at the rt for 1 h. The final concentration of donor and acceptor beads was 10 μg/mL for each. […] The data were then fit to a dose response equation using the program Helios (Novartis) to get the IC50 values. […] Sebaugh, J. […] Each compound was counter screened to determine if it interfered with the AlphaScreen beads. […] The plates were then incubated for 1 h at rt in dark before being read on EnVison.
A general note: Alpha assays give light when donor and acceptor beads are brought close together.

EED (1-441)-His protein, sequence (O75530 whole entry): as the sequence (O75530 whole entry) above

As a reminder, the IC50 is the concentration that gives 50% inhibition. Turning to `O=C(c1ccc(-c2cnc(NCc3c(F)ccc4c3CCO4)n3cncc23)cc1)N1CCCC1` [Example 37, (4-(5-(((5-fluoro-2,3-dihydrobenzofuran-4-yl)methyl)amino)imidazo[1,5-c]pyrimidin-8-yl)phenyl)(pyrrolidin-1-yl)methanone], the IC50 is 0.0419 µM in experiment [1], 0.0819 µM in experiment [2] and 0.0162 µM in experiment [3].
For `Cc1nc(S(C)(=O)=O)ccc1-c1cnc(NCc2c(F)ccc3c2CCO3)n2cncc12` [Example 38, N-((5-fluoro-2,3-dihydrobenzofuran-4-yl)methyl)-8-(2-methyl-6-(methylsulfonyl)pyridin-3-yl)imidazo[1,5-c]pyrimidin-5-amine], the IC50 was 0.0208 µM in experiment [1], 0.0477 µM in experiment [2] and 0.0094 µM in experiment [3].
Consider `Fc1ccc2c(c1CNc1ncc(-c3ccc(CN4CCCC4)cc3)c3cncn13)CCO2` [Example 39, N-((5-fluoro-2,3-dihydrobenzofuran-4-yl)methyl)-8-(4-(pyrrolidin-1-ylmethyl)phenyl)imidazo[1,5-c]pyrimidin-5-amine], for which the IC50 turned out to be 0.0101 µM in experiment [1], 0.031 µM in experiment [2] and 0.0105 µM in experiment [3].
Regarding `CN1CCN(c2ccc(-c3cnc(NCc4c(F)ccc5c4CCO5)n4cncc34)cn2)CC1` [Example 40, N-((5-fluoro-2,3-dihydrobenzofuran-4-yl)methyl)-8-(6-(4-methylpiperazin-1-yl)pyridin-3-yl)imidazo[1,5-c]pyrimidin-5-amine], the IC50 in experiment [1] stood at 0.0282 µM; in experiment [2] it was 0.066 µM; in experiment [3], 0.0177 µM.
The like results for `CN(C)c1ccc(-c2cnc(NCc3c(F)ccc4c3CCO4)n3cncc23)cn1` [Example 41, 8-(6-(dimethylamino)pyridin-3-yl)-N-((5-fluoro-2,3-dihydrobenzofuran-4-yl)methyl)imidazo[1,5-c]pyrimidin-5-amine] were, in that order, 0.0146 µM, 0.0512 µM and 0.0412 µM.
Consider `Cc1cc(S(C)(=O)=O)ccc1-c1cnc(NCc2c(F)ccc3c2CCO3)n2cncc12` [Example 42, N-((5-fluoro-2,3-dihydrobenzofuran-4-yl)methyl)-8-(2-methyl-4-(methylsulfonyl)phenyl)imidazo[1,5-c]pyrimidin-5-amine], for which the half-inhibitory concentration (IC50) in experiment [1] came out at 0.0085 µM; in experiment [2], 0.0795 µM; in experiment [3], 0.0104 µM.
Regarding `Cc1ccc(-c2cnc(NCc3c(F)ccc4c3CCO4)n3cncc23)c(C)n1` [Example 43, 8-(2,6-dimethylpyridin-3-yl)-N-((5-fluoro-2,3-dihydrobenzofuran-4-yl)methyl)imidazo[1,5-c]pyrimidin-5-amine], the figures for the IC50 in experiment [1], in experiment [2] and in experiment [3] were 0.0126 µM, 0.0509 µM and 0.0103 µM, respectively.
On to `OCCNc1ncc(-c2cnc(NCc3c(F)ccc4c3CCO4)n3cncc23)cn1` [Example 44, 2-((5-(5-(((5-fluoro-2,3-dihydrobenzofuran-4-yl)methyl)amino)imidazo[1,5-c]pyrimidin-8-yl)pyrimidin-2-yl)amino)ethan-1-ol], for which the half-inhibitory concentration (IC50) in experiment [1] is 0.0195 µM; in experiment [2], 0.0645 µM; in experiment [3] it was 0.0086 µM.
For `Cc1cc(-c2cnc(NCc3c(F)ccc4c3CCO4)n3cncc23)n(C)n1` [Example 45, 8-(1,3-dimethyl-1H-pyrazol-5-yl)-N-((5-fluoro-2,3-dihydrobenzofuran-4-yl)methyl)imidazo[1,5-c]pyrimidin-5-amine], the IC50 in experiment [1] came out at 0.0084 µM; in experiment [2], 0.0179 µM; in experiment [3], 0.0051 µM.
Turning to `Cc1nn(C)c(C)c1-c1cnc(NCc2c(F)ccc3c2CCO3)n2cncc12` [Example 46, N-((5-fluoro-2,3-dihydrobenzofuran-4-yl)methyl)-8-(1,3,5-trimethyl-1H-pyrazol-4-yl)imidazo[1,5-c]pyrimidin-5-amine], the figures for the IC50 in experiment [1], in experiment [2] and in experiment [3] were 0.0228 µM, 0.112 µM and 0.0184 µM, respectively.
With `Cc1ncncc1-c1cnc(NCc2c(F)ccc3c2CCO3)n2cncc12` [Example 47, N-((5-fluoro-2,3-dihydrobenzofuran-4-yl)methyl)-8-(4-methylpyrimidin-5-yl)imidazo[1,5-c]pyrimidin-5-amine], the figures for the IC50 in experiment [1], in experiment [2] and in experiment [3] were 0.0143 µM, 0.0424 µM and 0.0081 µM, respectively.
As for `Cc1cc(-c2cnc(NCc3c(F)ccc4c3CCO4)n3cncc23)ccc1S(C)(=O)=O` [Example 48, N-((5-fluoro-2,3-dihydrobenzofuran-4-yl)methyl)-8-(3-methyl-4-(methylsulfonyl)phenyl)imidazo[1,5-c]pyrimidin-5-amine], the IC50 is 0.0164 µM in experiment [1], 0.0341 µM in experiment [2] and 0.0105 µM in experiment [3].
The like results for `Cc1nn(CCO)c(C)c1-c1cnc(NCc2c(F)ccc3c2CCO3)n2cncc12` [Example 49, 2-(4-(5-(((5-fluoro-2,3-dihydrobenzofuran-4-yl)methyl)amino)imidazo[1,5-c]pyrimidin-8-yl)-3,5-dimethyl-1H-pyrazol-1-yl)ethan-1-ol] were, in that order, 0.0135 µM, 0.0204 µM and 0.0079 µM.
Consider `Cc1ncc(-c2cnc(NCc3c(F)ccc4c3CCO4)n3cncc23)cn1` [Example 50, N-((5-fluoro-2,3-dihydrobenzofuran-4-yl)methyl)-8-(2-methylpyrimidin-5-yl)imidazo[1,5-c]pyrimidin-5-amine], for which the IC50 in experiment [1] was found to be 0.0162 µM; in experiment [2], 0.0742 µM; in experiment [3], 0.0071 µM.
`Fc1ccc2c(c1CNc1ncc(-c3cccnc3C(F)F)c3cncn13)CCO2` [Example 51, 8-(2-(difluoromethyl)pyridin-3-yl)-N-((5-fluoro-2,3-dihydrobenzofuran-4-yl)methyl)imidazo[1,5-c]pyrimidin-5-amine]: the IC50 in experiment [1] was determined as 0.0094 µM; in experiment [2], 0.0064 µM; in experiment [3] it was 0.0052 µM.
As to `Fc1ccc2c(c1CNc1ncc(-c3cnccc3C(F)F)c3cncn13)CCO2` [Example 52, 8-(4-(difluoromethyl)pyridin-3-yl)-N-((5-fluoro-2,3-dihydrobenzofuran-4-yl)methyl)imidazo[1,5-c]pyrimidin-5-amine], the figures for the IC50 in experiment [1], in experiment [2] and in experiment [3] were 0.0178 µM, 0.0425 µM and 0.0102 µM, respectively.
For `Cc1nn(C(C)C)cc1-c1cnc(NCc2c(F)ccc3c2CCO3)n2cncc12` [Example 53, N-((5-fluoro-2,3-dihydrobenzofuran-4-yl)methyl)-8-(1-isopropyl-3-methyl-1H-pyrazol-4-yl)imidazo[1,5-c]pyrimidin-5-amine], the results for the IC50 in experiment [1], in experiment [2] and in experiment [3] were 0.0231 µM, 0.0948 µM and 0.0099 µM, respectively.
`Cc1cc(C(=O)N(C)C)ncc1-c1cnc(NCc2c(F)ccc3c2CCO3)n2cncc12` [Example 54, 5-(5-(((5-fluoro-2,3-dihydrobenzofuran-4-yl)methyl)amino)imidazo[1,5-c]pyrimidin-8-yl)-N,N,4-trimethylpicolinamide]: the IC50 in experiment [1] amounted to 0.0126 µM; in experiment [2], 0.0081 µM; in experiment [3], 0.0044 µM.
With `Fc1ccc2c(c1CNc1ncc(-c3ccc(CN4CCC4)cc3)c3cncn13)CCO2` [Example 55, 8-(4-(azetidin-1-ylmethyl)phenyl)-N-((5-fluoro-2,3-dihydrobenzofuran-4-yl)methyl)imidazo[1,5-c]pyrimidin-5-amine], the IC50 was determined as 0.0137 µM in experiment [1], 0.0374 µM in experiment [2] and 0.0033 µM in experiment [3].
On the same counts, the results for `Cc1nc(C(F)(F)CO)ccc1-c1cnc(NCc2c(F)ccc3c2CCO3)n2cncc12` [Example 56, 2,2-difluoro-2-(5-(5-(((5-fluoro-2,3-dihydrobenzofuran-4-yl)methyl)amino)imidazo[1,5-c]pyrimidin-8-yl)-6-methylpyridin-2-yl)ethan-1-ol] are 0.0182 µM, 0.0209 µM and 0.0048 µM.
In the case of `Cc1nc(C(F)F)ccc1-c1cnc(NCc2c(F)ccc3c2CCO3)n2cncc12` [Example 57, 8-(6-(difluoromethyl)-2-methylpyridin-3-yl)-N-((5-fluoro-2,3-dihydrobenzofuran-4-yl)methyl)imidazo[1,5-c]pyrimidin-5-amine], the IC50 in experiment [1] was found to be 0.0125 µM; in experiment [2] it was 0.0541 µM; in experiment [3] it was 0.0075 µM.
